{"source": "paper PMC7279038", "about": "“Antioxidant and Neuroprotective Effects Induced by Cannabidiol and Cannabigerol in Rat CTX-TNA2 Astrocytes and Isolated Cortexes” (International Journal of Molecular Sciences, 2020)", "key": {"[1]": {"system": "isolated rat prefrontal cortex, 5-HT", "test": "H2O2-induced reduction in 5-HT level in isolated cortexes", "details": "hydrogen peroxide 300 µM; CBD 1000 nM, CBG 1 nM", "description": "Sprague–Dawley rats (200–250 g) were sacrificed by CO2 inhalation and isolated prefrontal cortex specimens were immediately explanted and exposed to 300 µM H2O2 and different concentrations of CBD (1–1000 nM) and CBG (1–1000 nM) for one hour, at 37 °C. The nitrite concentration in the resuspension buffer was determined by colorimetric Griess assay. Specifically, cortex specimens were homogenized for 2 min with Potter–Elvehjem homogenizer in 2 mL DMEM buffer. The homogenate was centrifuged at 4500 g for 10 min and nitrite production was determined in the supernatant fraction by mixing 50 µL of the assay buffer with 50 µL of Griess reagent (1.5% sulfanilamide in 1M HCl plus 0.15% N-(1-naphthyl) ethylenediamine dihydrochloride in distilled water, v/v). After 10 min incubation at room temperature, the absorbance at 540 nm was determined and nitrite concentrations were calculated from a sodium nitrite standard curve. […]\nTissue 3-HK, 5-HT and 5HIIA levels were analyzed through an HPLC apparatus consisting of a Jasco (Tokyo, Japan) PU-2080 chromatographic pump and an ESA (Chelmsford, MA, USA) Coulochem III coulometric detector, equipped with a microdialysis cell (ESA-5014b), a porous graphite working electrode and a solid state palladium reference electrode. The analytical conditions for identification and quantification were selected according to previous studies. […]"}, "cytochrome C (Cyt C)": {"system": "cytochrome C (Cyt C)", "test": "Western blotting analysis of cytochrome C", "type": "cell-based, rat", "details": "CTX-TNA2 challenged with H2O2, 24 h; 1000 nM CBD, 1 nM CBG", "description": "[…] The stock solutions were diluted in cell medium to the point that the concentration of DMSO in the samples was less than 0.0003%. Therefore, the addition of DMSO to the control samples was not necessary.\nThe western blowing analysis of Bax and Cyt C was carried out as previously reported. Specifically, CTX-TNA2 lysates (20 µg) were boiled fof 5 min in sample buffer, made of tris-HCl pH 6.8, glycerol, 2-mercaptoethanol, SDS and bromophenol blue. They were then electrophoresed and transferred to nitrocellulose membranes. […] Immunoreactive bands were identified using the ECL detection system (Euroclone, Pero, Milano, Italy) and analyzed by densitometry. Densitometric values were quantified by the CHEMIDOC XRS system and expressed as Integrated Optical Intensity using the QuantiOne 1-D analysis software (Bio-rad Laboratories, Richmond, CA, USA). […] Results are expressed as the mean ± SD."}, "[2]": {"system": "isolated rat cortexes, 5HIIA/5-HT ratio", "test": "K+ 60 mM neurotoxicity paradigm, 5-HT turnover", "details": "CBD 1000 nM, CBG 1 nM", "description": "Sprague–Dawley rats (200–250 g) were sacrificed by CO2 inhalation (Italian Health Ministry authorization N. F4738.N.XTQ, delivered on 11th November 2018) and isolated prefrontal cortex specimens were immediately explanted and incubated in thermostatic shaking bath at 37 °C for 1 h (incubation period), in Krebs–Ringer buffer at the following K^+ concentrations:\nCortexes were stimulated with CBD (1000 nM) and CBD (1 nM). Afterwards, specimens were homogenized in perchloric acid solution (0.05 M) for the extraction and quantification of nitrites, via the aforementioned colorimetric Griess assay, and serotonin (5-HT), 5-hydroxyindoleacetic (5HIIA),3-hydroxykinurenine (3-HK) and kinurenic acid (KA) (ng/mg wet tissue) via high performance liquid chromatography analysis. […]\nTissue 3-HK, 5-HT and 5HIIA levels were analyzed through an HPLC apparatus consisting of a Jasco (Tokyo, Japan) PU-2080 chromatographic pump and an ESA (Chelmsford, MA, USA) Coulochem III coulometric detector, equipped with a microdialysis cell (ESA-5014b), a porous graphite working electrode and a solid state palladium reference electrode. The analytical conditions for identification and quantification were selected according to previous studies. […] The chromatograms were monitored at the analytical detector 2. […] Sample concentrations were calculated by linear regression curve (y = bx + m) obtained with standard. […]"}}}
{"smiles": "CCCCCc1cc(O)c(C/C=C(\\C)CCC=C(C)C)c(O)c1", "note": "[CBG, cannabigerol]", "values": [{"measurement": "effect on H2O2-induced 5-HT depletion", "setting": "[1]", "result": "same effect at the concentration of 1 nM"}, {"measurement": "Cyt C expression", "setting": "cytochrome C (Cyt C)", "result": "effect on Bax only"}, {"measurement": "effect on K+ 60 mM-induced increase in 5-HT turnover (5HIIA/5-HT ratio)", "setting": "[2]", "result": "able to prevent the 5-HT depletion"}]}
{"smiles": "C=C(C)[C@@H]1CCC(C)=C[C@H]1c1c(O)cc(CCCCC)cc1O", "note": "[CBD, Cannabidiol]", "values": [{"measurement": "effect on H2O2-induced 5-HT depletion", "setting": "[1]", "result": "blunting effect on 5-HT depletion"}, {"measurement": "Cyt C expression", "setting": "cytochrome C (Cyt C)", "result": "decrease the Cyt C levels in comparison to H2O2 sample"}, {"measurement": "effect on K+ 60 mM-induced increase in 5-HT turnover (5HIIA/5-HT ratio)", "setting": "[2]", "result": "able to prevent the 5-HT depletion"}]}
